Conditions in all cases: Homo sapiens
One assay has as its system KB 3-1. The assay is described as follows: Compound was tested for cytotoxicity against paclitaxel sensitive KB-3-1 cell line. It counts as functional, cell-based.
Another assay has as its system KB. The assay is described as follows: Compound was tested for cytotoxicity against paclitaxel resistant KB-8-5 cell line expressing P-glycoprotein. It counts as functional, cell-based.
A short description of assay [1]: Compound was tested for cytotoxicity against paclitaxel resistant KB-V1 cell line expressing P-glycoprotein.

A value given as a limit tells only on which side of the number the result lay.

Broadly, the IC50 is the midpoint of a concentration-inhibition curve. High values mean weaker potency, low ones greater potency. Turning to `CN[C@H](C(=O)N[C@H](C(=O)N(C)[C@H](/C=C(\C)C(=O)N1CC=C[C@@H]1C(=O)OC)C(C)C)C(C)(C)C)C(C)(C)c1ccccc1`, the IC50 with KB 3-1 turned out to be 3.5 nM; in the assay on KB, 17 nM; in assay [1], 272 nM.
For `CN[C@H](C(=O)N[C@H](C(=O)N(C)[C@H](/C=C(\C)C(=O)N1CCC[C@@H]1C(=O)O)C(C)C)C(C)(C)C)C(C)(C)c1cccc(C)c1`, the figures for the IC50 (with KB 3-1; in the assay with KB; in assay [1]) were 70 nM, 599 nM and above 3000 nM, respectively.
With `CN[C@H](C(=O)N[C@H](C(=O)N(C)[C@H](/C=C(\C)C(=O)N1CCC[C@@H]1C(=O)OC)C(C)C)C(C)(C)C)C(C)(C)c1cccc(Cl)c1`, the values for the IC50 (in the assay on KB 3-1; with KB; in assay [1]) were 2.5 nM, 6.2 nM and 362 nM, respectively.
The matching figures for `CN[C@H](C(=O)N[C@H](C(=O)N(C)[C@H](/C=C(\C)C(=O)CO)C(C)C)C(C)(C)C)C(C)(C)c1ccccc1`: 43 nM, 68 nM and 1130 nM.
Consider `CN[C@H](C(=O)N[C@H](C(=O)N(C)[C@H](/C=C(\C)C(=O)c1ccccc1)C(C)C)C(C)(C)C)C(C)(C)c1ccccc1`, for which the figures for the IC50 (in the assay with KB 3-1; in the assay with KB; in assay [1]) were 725 nM, 1330 nM and 1800 nM, respectively.
For the compound `CN[C@H](C(=O)N[C@H](C(=O)N(C)[C@H](/C=C(\C)C(=O)c1nccs1)C(C)C)C(C)(C)C)C(C)(C)c1ccccc1`, the IC50 in the assay with KB 3-1 came to 582 nM; with KB, 565 nM; in assay [1] it was 1790 nM.
The matching figures for `CN[C@H](C(=O)N[C@H](C(=O)N(C)[C@H](/C=C(\C)CO)C(C)C)C(C)(C)C)C(C)(C)c1ccccc1`: 454 nM, 447 nM and 1590 nM.
As for `CN[C@H](C(=O)N[C@H](C(=O)N(C)[C@H](/C=C(\C)C(=O)N1CCC[C@@H]1C(=O)OC)C(C)C)C(C)(C)C)C(C)(C)c1ccccc1`, the IC50 came to 1.5 nM in the assay with KB 3-1, 7.3 nM with KB and 291 nM in assay [1].
The matching figures for `CN[C@H](C(=O)N[C@H](C(=O)N(C)[C@H](/C=C(\C)C(C)O)C(C)C)C(C)(C)C)C(C)(C)c1ccccc1` (some centres not stated): 63 nM, 172 nM and 1460 nM.
Take `CN[C@H](C(=O)N[C@H](C(=O)N(C)[C@H](/C=C(\C)C(=O)N1CCC[C@H]1C(=O)O)C(C)C)C(C)(C)C)C(C)(C)c1ccccc1`: the IC50 was 515 nM in the assay with KB 3-1, 1580 nM in the assay with KB and above 3000 nM in assay [1].
Turning to `CN[C@H](C(=O)N[C@H](C(=O)N(C)[C@H](C(=O)O)C(C)C)C(C)(C)C)C(C)(C)c1ccccc1`, the IC50 (with KB 3-1; with KB; in assay [1]) was above 3000 nM each time.
On to `CN[C@H](C(=O)N[C@H](C(=O)N(C)[C@H](/C=C(\C)C(=O)N1CCCC[C@@H]1C(=O)O)C(C)C)C(C)(C)C)C(C)(C)c1ccccc1`, for which the figures for the IC50 (in the assay with KB 3-1; in the assay with KB; in assay [1]) were 64 nM, 270 nM and above 3000 nM, respectively.
Take `CN[C@H](C(=O)N[C@H](C(=O)N(C)[C@H](/C=C/C(=O)O)C(C)C)C(C)(C)C)C(C)(C)c1ccccc1`: the IC50 in the assay with KB 3-1 is 191 nM; in the assay on KB it was 479 nM; in assay [1], above 3000 nM.
In the case of `CN[C@H](C(=O)N[C@H](C(=O)N(C)[C@H](/C=C(\C)C(=O)N1CCC[C@@H]1C(=O)O)C(C)C)C(C)(C)C)C(C)(C)c1ccc(C)c(C)c1`, the figures for the IC50 (in the assay on KB 3-1; in the assay on KB; in assay [1]) were 74 nM, 519 nM and above 3000 nM, respectively.
On to `CN[C@H](C(=O)N[C@H](C(=O)N(C)[C@H](/C=C(\C)C(=O)N1CCC[C@@H]1C(=O)O)C(C)C)C(C)(C)C)C(C)(C)c1cccc(Cl)c1`, for which the values for the IC50 (in the assay with KB 3-1; in the assay with KB; in assay [1]) were 62 nM, 180 nM and above 3000 nM, respectively.
For `CN[C@H](C(=O)N[C@H](C(=O)N(C)[C@H](/C=C(\C)c1ccccc1)C(C)C)C(C)(C)C)C(C)(C)c1ccccc1`, in that order: above 3000 nM, above 3000 nM and above 3000 nM.
With `CN[C@H](C(=O)N[C@H](C(=O)N(C)[C@H](/C=C1/C(=O)NC(=O)N1C)C(C)C)C(C)(C)C)C(C)(C)c1ccccc1`, the IC50 in the assay on KB 3-1 was determined as 5.1 nM; with KB, 9.9 nM; in assay [1] it was 230 nM.
Consider `CN[C@H](C(=O)N[C@H](C(=O)N(C)[C@H](/C=C(\C)C(=O)N1CCC[C@@H]1C(=O)OC)C(C)C)C(C)(C)C)C(C)(C)c1cccc(C)c1`, for which the IC50 in the assay with KB 3-1 is 1.6 nM; with KB it was 6.2 nM; in assay [1] it was 275 nM.
As to `CN[C@H](C(=O)N[C@H](C(=O)N(C)[C@H](/C=C(\C)C(O)c1nccs1)C(C)C)C(C)(C)C)C(C)(C)c1ccccc1` (some centres not stated), the IC50 is 13 nM in the assay on KB 3-1, 19 nM with KB and 364 nM in assay [1].
Turning to `CN[C@H](C(=O)N[C@H](C(=O)N(C)[C@H](/C=C(/C)C(=O)O)C(C)C)C(C)(C)C)C(C)(C)c1ccccc1`, the IC50 in the assay on KB 3-1 worked out at 28 nM; in the assay on KB, 58 nM; in assay [1], 2630 nM.
For `CN[C@H](C(=O)N[C@H](C(=O)N(C)[C@H](/C=C1\NC(=O)NC1=O)C(C)C)C(C)(C)C)C(C)(C)c1ccccc1`, in that order: 1070 nM, 1740 nM and above 3000 nM.
For `CN[C@H](C(=O)N[C@H](C(=O)N(C)[C@H](/C=C(\C)C(C)=O)C(C)C)C(C)(C)C)C(C)(C)c1ccccc1`, in that order: 403 nM, 664 nM and 2360 nM.
For `CN[C@H](C(=O)N[C@H](C(=O)N(C)[C@H](/C=C(\C)C(=O)c1ncc[nH]1)C(C)C)C(C)(C)C)C(C)(C)c1ccccc1`, the IC50 was 218 nM in the assay on KB 3-1, 1360 nM in the assay on KB and above 3000 nM in assay [1].
Take `CN[C@H](C(=O)N[C@H](C(=O)N(C)[C@H](/C=C(\C)C(=O)N1CCCC[C@@H]1C(=O)OC)C(C)C)C(C)(C)C)C(C)(C)c1ccccc1`: the IC50 with KB 3-1 was found to be 5.2 nM; with KB, 17 nM; in assay [1], 150 nM.
`CN[C@H](C(=O)N[C@H](C(=O)N(C)[C@H](/C=C(\C)C(=O)N1CCC[C@@H]1C(=O)NCCc1ccccc1)C(C)C)C(C)(C)C)C(C)(C)c1ccccc1`: the results for the half-inhibitory concentration (IC50) (in the assay with KB 3-1; with KB; in assay [1]) were 6.4 nM, 21 nM and 1670 nM, respectively.
For `CN[C@H](C(=O)N[C@H](C(=O)N(C)[C@H](/C=C(\C)C=O)C(C)C)C(C)(C)C)C(C)(C)c1ccccc1`, the values for the IC50 (in the assay with KB 3-1; in the assay with KB; in assay [1]) were 454 nM, 447 nM and 1590 nM, respectively.
In the case of `CN[C@H](C(=O)N[C@H](C(=O)N(C)[C@H](/C=C(\C)C(=O)N1CC(O)C[C@@H]1C(=O)OC)C(C)C)C(C)(C)C)C(C)(C)c1ccccc1` (some centres not stated), the IC50 with KB 3-1 is 3.5 nM; in the assay with KB, 116 nM; in assay [1] it was above 3000 nM.
For `CN[C@H](C(=O)N[C@H](C(=O)N(C)[C@H](/C=C(\C)[C@H](O)c1ccccc1)C(C)C)C(C)(C)C)C(C)(C)c1ccccc1`, in that order: 124 nM, 186 nM and 632 nM.
In the case of `CN[C@H](C(=O)N[C@H](C(=O)N(C)[C@H](/C=C(C)/C=C(\C)C(=O)O)C(C)C)C(C)(C)C)C(C)(C)c1ccccc1`, the 50% inhibitory concentration (IC50) with KB 3-1 amounted to 27 nM; in the assay with KB, 53 nM; in assay [1], 1580 nM.
Regarding `CN[C@H](C(=O)N[C@H](C(=O)N(C)[C@H](C(=O)N1CCC[C@@H]1C(=O)O)C(C)C)C(C)(C)C)C(C)(C)c1ccccc1`, the half-inhibitory concentration (IC50) (with KB 3-1; in the assay on KB; in assay [1]) was above 3000 nM throughout.
For `CN[C@H](C(=O)N[C@H](C(=O)N(C)[C@H](/C=C(\C)C(=O)N1CCC[C@@H]1C(=O)OC)C(C)C)C(C)(C)C)C(C)(C)C1CCCCC1`, the IC50 in the assay with KB 3-1 was 3.7 nM; in the assay with KB it was 16 nM; in assay [1], 493 nM.
Consider `CN[C@H](C(=O)N[C@H](C(=O)N(C)[C@H](/C=C(\C)C(=O)N1CC=C[C@@H]1C(=O)O)C(C)C)C(C)(C)C)C(C)(C)c1ccccc1`, for which the IC50 in the assay with KB 3-1 is 58 nM; in the assay on KB, 184 nM; in assay [1], above 3000 nM.
As to `CN[C@H](C(=O)N[C@H](C(=O)N(C)[C@H](/C=C(\C)C(=O)N1CCC[C@@H]1C(=O)OC)C(C)C)C(C)(C)C)C(C)(C)c1ccc(C)c(C)c1`, the results for the IC50 (in the assay on KB 3-1; in the assay on KB; in assay [1]) were 1.9 nM, 15 nM and 363 nM, respectively.
Consider `CN[C@H](C(=O)N[C@H](C(=O)N(C)[C@H](/C=C(\C)C(=O)N1CC(O)C[C@@H]1C(=O)O)C(C)C)C(C)(C)C)C(C)(C)c1ccccc1` (some centres not stated), for which the figures for the IC50 (in the assay with KB 3-1; in the assay with KB; in assay [1]) were 184 nM, 1850 nM and above 3000 nM, respectively.
On to `CN[C@H](C(=O)N[C@H](C(=O)N(C)[C@H](/C=C(\C)C(=O)N1CCC[C@H]1C(=O)OC)C(C)C)C(C)(C)C)C(C)(C)c1ccccc1`, for which the IC50 in the assay with KB 3-1 was 16 nM; with KB it was 51 nM; in assay [1] it was 1100 nM.
For `CN[C@H](C(=O)N[C@H](C(=O)N(C)[C@H](/C=C/c1nn[nH]n1)C(C)C)C(C)(C)C)C(C)(C)c1ccccc1`, in that order: 1150 nM, 1820 nM and above 3000 nM.
Turning to `CN[C@H](C(=O)N[C@H](C(=O)N(C)[C@H](/C=C(\C)C(=O)N1CCC[C@@H]1C(=O)O)C(C)C)C(C)(C)C)C(C)(C)c1ccccc1`, the IC50 with KB 3-1 was 62 nM; in the assay with KB it was 205 nM; in assay [1], above 3000 nM.
As for `CN[C@H](C(=O)N[C@H](C(=O)N(C)[C@H](/C=C(\C)C(O)c1ccccc1)C(C)C)C(C)(C)C)C(C)(C)c1ccccc1` (single isomer, unassigned), the IC50 with KB 3-1 is 16 nM; with KB it was 22 nM; in assay [1] it was 190 nM.
The matching figures for `CN[C@H](C(=O)N[C@H](C(=O)N(C)[C@H](/C=C(\C)C(=O)O)C(C)C)C(C)(C)C)C(C)(C)c1ccccc1` [TALTOBULIN]: 0.96 nM, 2.3 nM and 77 nM.

(Values after ChEMBL document CHEMBL1137171, “D-piece modifications of the hemiasterlin analog HTI-286 produce potent tubulin inhibitors” (Bioorg Med Chem Lett, 2004).)
